The structures appear in SMILES notation.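 In this assay, cells in 96-well plates receive the compound at five concentrations for 48 hours. Endpoints are linearly interpolated between the surrounding concentrations. GI50 marks 50% less growth. At the TGI there is no net growth.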 Some results are limits rather than exact numbers.

Test systems include DMS 273 small cell lung; EKVX NSCLC; HCT-116 colon; HOP-62 NSCLC; MALME-3M melanoma; NCI-H226 lung; NCI-H522 lung; OVCAR-8 ovarian; SK-MEL-28 melanoma; UO-31 renal; NCI-H460 lung.
Assay in all cases: DTP human tumour cell line panel, 48 h

Take `CS(=O)(=O)OCc1c(O)c2c(c(O)c1COS(C)(=O)=O)C(=O)C=CC2=O`: the TGI in the experiment with DMS 273 small cell lung, in the experiment with EKVX NSCLC, with HCT-116 colon, in the experiment with HOP-62 NSCLC, with MALME-3M melanoma and in the experiment with NCI-H226 lung was over 100 µM in each case. The concentration for total growth inhibition (TGI) in the experiment on NCI-H522 lung, in the experiment with OVCAR-8 ovarian, in the experiment on SK-MEL-28 melanoma and in the experiment with UO-31 renal was over 100 µM each time.

For `Cc1ccc(S(=O)(=O)NCCSS(=O)(=O)c2ccc(C)cc2)cc1`, the TGI was 28.3 µM in the experiment with HCT-116 colon; 49.6 µM in the experiment on NCI-H226 lung; over 100 µM in the experiment with NCI-H460 lung; 38.5 µM in the experiment with NCI-H522 lung; over 100 µM in the experiment on OVCAR-8 ovarian; 76.6 µM in the experiment with SK-MEL-28 melanoma. The same compound gave a TGI in the experiment with UO-31 renal of 61.7 µM.

With `O=C(/N=C/c1c(O)c2ccccc2oc1=O)NC1CCCCC1`, the TGI in the experiment with DMS 273 small cell lung, with EKVX NSCLC, in the experiment with HCT-116 colon, with HOP-62 NSCLC, in the experiment on NCI-H226 lung and in the experiment with NCI-H460 lung was over 100 µM in each case. Besides, the TGI in the experiment with OVCAR-8 ovarian, in the experiment on SK-MEL-28 melanoma and in the experiment on UO-31 renal was over 100 µM throughout.

As for `CC(C)Cc1cccc(C(C)C)c1NC(=O)CCC(=O)N/N=C1\C(=N/NC(=O)CCC(=O)Nc2c(C(C)C)cccc2C(C)C)C(c2ccc3c(c2)OCO3)Oc2ccccc21` (stereo not drawn), the TGI in the experiment on DMS 273 small cell lung, with EKVX NSCLC, in the experiment on HCT-116 colon, in the experiment with HOP-62 NSCLC, with NCI-H226 lung and in the experiment on NCI-H460 lung was over 100 µM in each case. Also, the TGI in the experiment with NCI-H522 lung, in the experiment on OVCAR-8 ovarian, with SK-MEL-28 melanoma and in the experiment with UO-31 renal was over 100 µM throughout.

Consider `CN(C)CCC(C(=O)C(C)(C)C)c1ccccn1` (stereo not drawn), for which the TGI in the experiment with EKVX NSCLC, in the experiment on HCT-116 colon, with HOP-62 NSCLC, in the experiment on MALME-3M melanoma, with NCI-H226 lung and in the experiment on NCI-H460 lung was over 100 µM throughout. The TGI in the experiment on NCI-H522 lung, in the experiment with OVCAR-8 ovarian, in the experiment with SK-MEL-28 melanoma and in the experiment with UO-31 renal was over 100 µM throughout.

For `O=c1cc(-c2nc3ccccc3[nH]2)[nH]c2nc(-c3nc4ccccc4[nH]3)cc(-c3ccc(Cl)cc3)c12`, the TGI in the experiment on EKVX NSCLC was over 100 µM; in the experiment with HCT-116 colon, 35.2 µM; in the experiment on HOP-62 NSCLC, 54.7 µM; with MALME-3M melanoma, 71.2 µM; with NCI-H226 lung it was 49.2 µM; in the experiment with NCI-H460 lung, 43.6 µM. For the same compound, the TGI with NCI-H522 lung is 26.1 µM; in the experiment on OVCAR-8 ovarian, over 100 µM; in the experiment on UO-31 renal, 33 µM.

For `ClCC1(CCl)COC1`, the total growth inhibition concentration (TGI) in the experiment on HCT-116 colon, with NCI-H226 lung, in the experiment with NCI-H460 lung, in the experiment with NCI-H522 lung, in the experiment with OVCAR-8 ovarian and with SK-MEL-28 melanoma was over 100 µM each time. This compound also showed a TGI with UO-31 renal of over 100 µM.

`C[C@H](O)C(=O)SC[C@H](NC(=O)CC[C@@H](N)C(=O)O)C(=O)NCC(=O)O`: the TGI in the experiment with DMS 273 small cell lung, in the experiment on EKVX NSCLC, in the experiment on HCT-116 colon, in the experiment with HOP-62 NSCLC, with MALME-3M melanoma and in the experiment on NCI-H226 lung was over 100 µM in each case. The total growth inhibition concentration (TGI) in the experiment with NCI-H460 lung, in the experiment on NCI-H522 lung, in the experiment on OVCAR-8 ovarian, with SK-MEL-28 melanoma and in the experiment on UO-31 renal was over 100 µM in each case.

`COc1ccc(-n2cc(-c3ccc(OC)c(OC)c3)nc2SCc2ccccc2)cc1Cl`: the GI50 in the experiment on EKVX NSCLC was 13.8 µM; in the experiment with HCT-116 colon, 9.43 µM; in the experiment on HOP-62 NSCLC, 28.3 µM; with NCI-H226 lung it was 40.4 µM; in the experiment on NCI-H460 lung it was 25.5 µM; in the experiment with NCI-H522 lung it was 13.2 µM. Further, the GI50 was 25.9 µM in the experiment with OVCAR-8 ovarian, 27.4 µM in the experiment on SK-MEL-28 melanoma and 15.2 µM in the experiment on UO-31 renal. Also, the concentration for total growth inhibition (TGI) with EKVX NSCLC was 64.7 µM; in the experiment with HCT-116 colon, over 100 µM; in the experiment on HOP-62 NSCLC, over 100 µM; in the experiment with NCI-H226 lung it was over 100 µM; in the experiment with NCI-H460 lung it was over 100 µM; in the experiment with NCI-H522 lung, 98.4 µM. The concentration for total growth inhibition (TGI) in the experiment with OVCAR-8 ovarian, in the experiment on SK-MEL-28 melanoma and with UO-31 renal was over 100 µM each time.

On to `FC(F)(F)C1=NC(=NNc2nnc(-c3ccccc3)c(-c3ccccc3)n2)N=C(C(F)(F)F)C1`, for which the total growth inhibition concentration (TGI) was over 100 µM with DMS 273 small cell lung; over 100 µM with EKVX NSCLC; over 93.6 µM in the experiment on HCT-116 colon; over 86.7 µM in the experiment with HOP-62 NSCLC; over 100 µM with MALME-3M melanoma; over 100 µM with NCI-H226 lung. Besides, the TGI was over 100 µM in the experiment with NCI-H460 lung; 53.6 µM in the experiment with NCI-H522 lung; over 100 µM in the experiment on OVCAR-8 ovarian; over 100 µM in the experiment with SK-MEL-28 melanoma; 29.1 µM in the experiment on UO-31 renal.

Regarding `C=C1C(=O)OC2/C=C(\C)CC(O)/C=C(/CO)CC(OC(=O)/C(C)=C/C)C12` (stereo not drawn), the TGI with DMS 273 small cell lung worked out at 82.5 µM; in the experiment with EKVX NSCLC, 59.1 µM; in the experiment on HCT-116 colon, 115 µM; with HOP-62 NSCLC it was 246 µM; with MALME-3M melanoma, 66.6 µM; in the experiment with NCI-H226 lung, 91 µM. The total growth inhibition concentration (TGI) in the experiment on NCI-H460 lung turned out to be 168 µM; in the experiment on NCI-H522 lung, 26.4 µM; in the experiment on OVCAR-8 ovarian, 122 µM; with SK-MEL-28 melanoma, 41.1 µM; in the experiment on UO-31 renal it was 439 µM.

A word on the TGI: it is the concentration giving total growth inhibition. Higher therefore signals less potent growth arrest. Broadly, the GI50 is the concentration giving 50% growth inhibition.

The values above are taken from PubChem BioAssay (NCI).
